The target in this test is recombinant human cannabinoid 1 receptor (CB1) (Homo sapiens, UniProt P21554). As to conditions: compound at 1 µM; 100 % = difference between maximal effect of WIN 55,212-2 alone and WIN 55,212-2 plus Rimonabant (1 µM).

The values below come from patent EP1944294A1, “Gamma-polymorph of a substituted pyrazoline, its preparation and use as medicaments” (Laboratorios del Dr. Esteve S.A., priority 2007, dated 2008).

Chain of recombinant human cannabinoid 1 receptor (CB1) (P21554 whole entry): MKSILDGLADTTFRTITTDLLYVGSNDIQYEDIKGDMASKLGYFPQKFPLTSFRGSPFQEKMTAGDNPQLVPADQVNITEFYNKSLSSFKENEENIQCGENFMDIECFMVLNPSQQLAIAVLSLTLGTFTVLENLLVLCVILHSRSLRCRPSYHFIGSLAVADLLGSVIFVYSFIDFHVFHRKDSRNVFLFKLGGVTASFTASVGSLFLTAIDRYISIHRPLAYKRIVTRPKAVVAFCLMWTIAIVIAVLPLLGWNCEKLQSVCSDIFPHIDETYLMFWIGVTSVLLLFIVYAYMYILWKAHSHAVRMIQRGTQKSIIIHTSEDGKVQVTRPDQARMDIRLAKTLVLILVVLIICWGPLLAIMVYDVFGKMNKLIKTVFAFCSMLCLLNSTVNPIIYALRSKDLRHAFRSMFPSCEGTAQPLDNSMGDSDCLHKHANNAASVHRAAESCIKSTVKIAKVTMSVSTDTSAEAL
Procedure: Chinese hamster ovary (CHO) cells stably expressing recombinant human cannabinoid 1 receptor (CB1) are cultured in nutrient mixture Ham's F 12 supplemented with 10 % heat-inactivated fetal bovine serum, 2 mM L-glutamine, 50 U/ml penicillin, 50 U/ml streptomycin and 0.5 mg/ml geneticin. In order to obtain cells, culture flasks are washed twice with phosphate buffered saline and scraped. Then, cells are collected by centrifugation (200 x g, 10 min) and stored dry at -80°C. Cells are homogenized in ice-cold 20 mM HEPES, 10 mM EDTA (pH 7.5) and centrifuged at 40,000 x g for 15 min at 4°C. The membrane pellet is resuspended in 20 mM HEPES, 0.1 1 mM EDTA (pH 7.5) and centrifuged for 15 min at 4°C. The final membrane pellet is resuspended in 20 mM HEPES, 0.1 1 mM EDTA (pH 7.5), and divided in aliquots and stored at -80°C until use.
The reaction is performed in 96-well plates. Membranes (15 µg protein/well) are incubated for 60 min at 30 °C in buffer (50 mM HEPES, 100 mM KCI, 5 mM MgCl2,1 mM EDTA, 0.1 % wt/vol bovine serum albumin, 5 µM GDP, saponin (10 µg/ml), 0.5 nM [^35S]GTPγS, pH 7.4) with compound at a final concentration of 1 µM in either the absence or presence of agonist WIN 55,212-2 between 3 nM and 3 µM. […] Radioactivity is determined using a Wallac Microbeta Trilux. […]

Consider `O=C(NN1CCCCC1)C1=NN(c2ccc(Cl)cc2Cl)[C@@H](c2ccc(Cl)cc2)C1` [Compound A, (R)-N-piperidinyl-5-(4-chlorophenyl)-1-(2,4-dichlorophenyl)-4,5-dihydro-1H-pyrazole-3-carboxamide], for which the Antagonism was found to be 106%.
